Laboratory results taken from patent publication US7348330B2, “1-azabicyclo [2,2,2] octan-3-one derivatives” (Aprea AB, priority 2000, dated 2008).

Legend:
[1] = system: p53-responsive PG-luciferase reporter in Saos-2-His-273 cells; test: PG-luciferase reporter assay; assay type: cell-based, human
Description: Transactivation assays using p53-responsive promoter constructs linked to the luciferase reporter gene (PG-luc) were performed by the Dual Luciferase Reporter Assay System (Promega) according to the manufacturer. […] A luciferase activity was assayed 1; 3.5 and 15 hours post-treatment.

[2] = system: human tumor cell lines with different p53 status (p53 null, wild type p53, mutant p53); test: WST-1 growth suppression, series of tumor cell lines; assay type: cell-based
Description: In addition, mouse p53 null J3D T-cell lymphoma line was used.

[3] = target: T1, GST-wild type p53 protein (Homo sapiens, UniProt P04637); test: ELISA with conformation-specific antibodies, recombinant protein; assay type: biochemical
T1 construct: made in house
Description: 20 ng of GST-wtp53, GST-mtp53-175 and GST-mtp53-248 were heated at 37° C. for 30 min or kept on ice. The procedure was performed with or without tested compounds. The ELISA analyses were done as described by (Foster et al., 1999). Briefly, after the treatment, samples were diluted with coating buffer (150 mM KCL, 25 mM HEPES) supplemented with 10 mM DTT. The whole mixture was apply to ELISA plates (MaxiSorp, Nunc) and incubated at +4° C. for 35 min. The wells were washed with coating buffer. The wells were blocked by 5% skim milk in PBS by incubating at +4° C. for 1 h. […] Samples were incubated at +4° C. for 30 min. Wells were rinsed twice with PBS. After that, a secondary antibody (anti-mouse, conjugated with horse radish peroxidase) was incubated with samples at +4° C. for 30 min. Then plates were washed 5 times with PBS and a peroxidase substrate was added. An absorbance at λ405 nm was monitored by ELISA reader.

[4] = target: T1, GST-wild type p53 protein; test: Band shift assay, heat-inactivated protein; assay type: biochemical; conditions: protein inactivated at 37° C. for 30 min
Description: Lane 3, inactivation of DNA binding of wtp53 by heating.
The GST-p53 proteins were prepared as described (Selivanova et al., 1997). Band shift assays were performed in binding buffer containing 100 mM HEPES pH 7.5, 50 mM KCl , 1 mg/ml BSA, 0.1% Triton X-100, 2 mM MgCl2 and 1 mM DTT essentially as in (Selivanova et al., 1996).
Substitution of arginin at position 175 causes a gross unfolding of the DNA binding core domain of p53. Therefore, the restoration of the DNA binding of this mutant was regarded as an exceptionally difficult task.

[5] = system: KRC/Y renal carcinoma cells (Phe-176 mutant p53); test: FACS analysis of apoptosis; assay type: cell-based, human
Description: The percentage of apoptotic cells was detected by FACS analysis as it was described in FIG. 3A.
(§1) Cells were placed on 12-well plate at a density of 30000/cm^2 and treated with compounds. After 48 h incubation cells were harvested by trypsinization, fixed with 70% ethanol, treated with RNase A (0.25 mg/ml) and stained with propidium iodide (0.02 mg/ml). Samples were analyzed on a Becton Dickinson FACScan. Data were analyzed by the CellQuest software, version 3.2.1.
Thus, it appears that the defect caused by substitution of the Cys residue at position 176 is irreversible. The substitution of this Cys residue abolishes the binding of a Zn atom which holds together the DNA-binding loops of the p53 core domain. Therefore, the unfolding of this mutant p53 protein is probably too extensive to be restored.

[6] = system: SW480 colon carcinoma cells carrying endogenous His-273 mutant p53; test: Western blot of p53 target genes p21 and MDM2; assay type: cell-based; conditions: Western blotting
Description: In order to assess the effect of the analogs on the transcriptional transactivation function of mutant p53, we tested the expression of p53 target genes after treatment with analogs of colon carcinoma cells SW480 expressing endogenous His-273 mutant p53.

Saos-2-His-273 cells [7] = test: FACS analysis of apoptosis (sub-G1, propidium iodide); assay type: cell-based, human; conditions: for p53 dependence of apoptosis induction: cells grown in presence or absence of doxycyclin; for time after treatment at which apoptosis/cell death is evident: data not shown
Description: Induction of apoptosis was determined by FACS analysis of ethanol fixed cells stained with propidium iodide (PI) as percentage of a sub-G1 population. […] The percentage of dead cells in non-treated cultures and in controls treated with caspase inhibitors only was subtracted. […] Hoechst staining was used to stain cell nuclei. […] The percentage of apoptotic cells was measured by FACS analysis as it was described in Figure.
as §1
Induction of cell death was determined by FACS analysis of ethanol-fixed cells stained with propidium iodide (PI) as percentage of sub-G1 population.

Saos-2-His-273 cells [8] = test: Colony formation assay; assay type: cell-based, human
Description: Colonies were stained with Giemsa and counted 14 days after seeding.
The cells were Giemsa stained and scored for the appearance of colonies after 14 days.

SKOV-His-175 cells = test: WST-1 proliferation assay; assay type: cell-based, human; conditions: for increase in cell survival by cycloheximide pretreatment: cycloheximide before addition of compound
Description: FIG. 13B, PRIMA-3 reactivated the hot spot p53 mutant Trp-248 in H1299 lung adenocarcinoma cells. FIG. 13C, MIRA-2 and MIRA-3 reactivated His-175 mutant of p53 in SKOV cells. […] FIG. 13G, PRIMA-2 reactivated mutant p53 His-273 in SKOV cells.
Saos-2-His-273 cell line stably transfected with construct allowing expression of mutant His-273 p53 in a tetracycline-dependent manner was used for screening (Selivanova et al., 1997). p53 expression was inhibited by incubation of cells with doxycycline (5 μg/ml). Cells were grown in 96-well plates at a density of 3000 cells per well with or without doxycycline and treated with 25 μM of the compounds from the NCI library of low molecular weight (LMW) compounds. After 48 hours of incubation the proliferative cell reagent WST-1 (Roche) was added to the cells. The degree of WST-1 reduction, which reflects cell viability, was measured by microplate reader at λ490 nm according to the manufacturer (Roche).
The cycloheximide treatment renders SKOV-His-175 resistant to MIRA-1 as well, resulting in about 4 fold increase in cell survival. […] In addition, SKOV-His-175 cells were at least 3 fold more sensitive to treatment with MIRA-1 in comparison with SKOV-His-175-22/23 cells.
Growth suppression by analogs in the presence or absence of p53 expression was measured as described in FIG. 1. […] Analogs of MIRA-1 induced mutant p53-dependent growth suppression in SKOV-His-175 cells (FIG. 13C).

T1 sequence (P04637 whole entry): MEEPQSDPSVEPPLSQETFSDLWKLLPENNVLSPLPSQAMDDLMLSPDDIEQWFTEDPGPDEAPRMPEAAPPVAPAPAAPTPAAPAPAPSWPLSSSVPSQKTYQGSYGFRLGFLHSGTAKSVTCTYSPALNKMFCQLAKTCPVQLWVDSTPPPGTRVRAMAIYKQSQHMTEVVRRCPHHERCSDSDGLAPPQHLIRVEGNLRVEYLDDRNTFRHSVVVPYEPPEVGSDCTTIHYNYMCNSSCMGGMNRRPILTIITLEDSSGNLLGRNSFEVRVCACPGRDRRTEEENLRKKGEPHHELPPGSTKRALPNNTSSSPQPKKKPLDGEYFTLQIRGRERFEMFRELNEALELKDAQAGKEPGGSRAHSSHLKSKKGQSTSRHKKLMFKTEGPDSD

Structure (SMILES) | stimulation of luciferase expression ([1]; after 3.5 hours, 10 μM) [fold] | growth suppression of mutant p53-expressing cells versus p53 null and wild type p53 cells [2] | increase in the PAb1620+ fraction [3] | reduction in PAb240+ fraction [3] | restoration of specific DNA binding [4] | induction of apoptosis compared to Saos-2-His-273 cells ([5]; 50 μM) | induction of MDM2 and p21 [6] | induction of apoptosis (Saos-2-His-273 cells [7]; 48 hours, no doxycycline) | p53 dependence of apoptosis induction (Saos-2-His-273 cells [7]) | time after treatment at which apoptosis/cell death is evident (Saos-2-His-273 cells [7]) [h] | number of colonies, % of untreated control (Saos-2-His-273 cells [8]; 5 µM of compound, colonies after 14 days) [%] | sensitivity of SKOV-His-175 cells in comparison with SKOV-His-175-22/23 cells (SKOV-His-175 cells) | increase in cell survival by cycloheximide pretreatment (SKOV-His-175 cells) | induction of luciferase expression ([1]; after 15 hours, 50 μM) [fold] | DO-1+ fraction [3] | induction of apoptosis compared to Saos-2-His-273 cells ([5]; 75 μM) | induction of apoptosis (Saos-2-His-273 cells [7]; 50, 75 and 125 µM, mutant p53 expressed) | doses inhibitory to colony formation in a mutant p53-dependent manner (Saos-2-His-273 cells [8]; Saos-2-His-273 vs Saos-2) [µM]
CCC(=O)OCN1C(=O)C=CC1=O [MIRA-1] | 2 | more efficiently | About 40% | ~20% | able to restore | much less prominent | induced MDM2 and p21 | apoptosis was induced | occurred only in the presence of p53 expression | 6 to 12 | 15 | at least 3 fold | about 4 fold |  |  |  |  | 
O=C1C2CCN(CC2)C1(CO)CO [PRIMA-1, 2,2-bis(hydroxymethyl)-1-azabicyclo[2,2,2]octan-3-one] |  | more efficiently | 40% | corresponding decrease | able to restore |  | induced MDM2 and p21 |  | occurred only in the presence of p53 expression | 48 |  |  | 4 fold | 2 | remained unchanged | much less prominent | apoptosis was induced | 50 to 100
